Data reported in the Kinase Knowledgebase extract (Sharma et al. 2016).

Biological target: CDK2 (UniProt P24941)
Experiment: Enzyme Assay
Conditions: concentration not given here

inhibition	SMILES
20%	CS(=O)(=O)c1ccccc1S(=O)(=O)Nc1ccc2[nH]nc(-c3ccc(Oc4ccccc4)cc3)c2c1
80%	O=S(=O)(Nc1ccc2[nH]nc(-c3ccccc3)c2c1)c1cccs1
56%	O=S(=O)(Nc1ccc2[nH]nc(-c3ccccc3)c2c1)c1ccc(F)cc1
84%	O=S(=O)(Nc1ccc2[nH]nc(-c3ccccc3)c2c1)c1ccccc1
45%	CS(=O)(=O)c1ccccc1S(=O)(=O)Nc1ccc2[nH]nc(-c3cc(Br)cc(Br)c3)c2c1
71%	Cc1cccc(-c2n[nH]c3ccc(NS(=O)(=O)c4ccccc4S(C)(=O)=O)cc23)c1
80%	CS(=O)(=O)c1ccccc1S(=O)(=O)Nc1ccc2[nH]nc(-c3ccoc3)c2c1
95%	CS(=O)(=O)c1ccccc1S(=O)(=O)Nc1ccc2[nH]nc(/C=C/c3ccc(F)cc3)c2c1
68%	O=S(=O)(Nc1ccc2[nH]nc(-c3ccccc3)c2c1)c1cc(F)cc(F)c1
77%	C=Cc1ccc(-c2n[nH]c3ccc(NS(=O)(=O)c4ccccc4S(C)(=O)=O)cc23)cc1
50%	CC(C)c1cc(C(C)C)c(S(=O)(=O)Nc2ccc3[nH]nc(-c4ccccc4)c3c2)c(C(C)C)c1
69%	CS(=O)(=O)c1ccccc1S(=O)(=O)Nc1ccc2[nH]nc(-c3cccc(F)c3)c2c1
61%	CS(=O)(=O)c1ccccc1S(=O)(=O)Nc1ccc2[nH]nc(-c3ccccc3F)c2c1
73%	CS(=O)(=O)c1ccccc1S(=O)(=O)Nc1ccc2[nH]nc(-c3cccc(Br)c3)c2c1
86%	CS(=O)(=O)c1ccccc1S(=O)(=O)Nc1ccc2[nH]nc(-c3ccc(C#N)cc3)c2c1
0%	CS(=O)(=O)c1ccccc1S(=O)(=O)Nc1ccc2[nH]nc(-c3cccc(OCc4ccccc4)c3)c2c1
64%	COC(=O)c1cccc(-c2n[nH]c3ccc(NS(=O)(=O)c4ccccc4S(C)(=O)=O)cc23)c1
0%	CS(=O)(=O)c1ccccc1S(=O)(=O)Nc1ccc2[nH]nc(-c3cc4cccnc4[nH]3)c2c1
76%	COc1ccc(-c2n[nH]c3ccc(NS(=O)(=O)c4ccccc4S(C)(=O)=O)cc23)cc1OC
90%	O=S(=O)(Nc1ccc2[nH]nc(-c3ccccc3)c2c1)c1cccc2ccccc12
52%	CS(=O)(=O)c1ccccc1S(=O)(=O)Nc1ccc2[nH]nc(-c3ccccc3Cl)c2c1
68%	COc1cccc(S(=O)(=O)Nc2ccc3[nH]nc(-c4ccccc4)c3c2)c1

Continued, compound first:

SMILES	inhibition
CN(C)c1c(F)c(F)c(S(=O)(=O)Nc2ccc3[nH]nc(-c4cc5ccccc5[nH]4)c3c2)c(F)c1F	53%
CS(=O)(=O)c1ccccc1S(=O)(=O)Nc1ccc2[nH]nc(-c3cc4ccccc4[nH]3)c2c1	99%
O=S(=O)(Nc1ccc2[nH]nc(-c3ccccc3)c2c1)c1ccccc1F	81%
CS(=O)(=O)c1ccccc1S(=O)(=O)Nc1ccc2[nH]nc(-c3nc4ccccc4[nH]3)c2c1	99%
CS(=O)(=O)c1ccccc1S(=O)(=O)Nc1ccc2[nH]nc(-c3ccc(Br)cc3F)c2c1	65%
CS(=O)(=O)c1ccccc1S(=O)(=O)Nc1ccc2[nH]nc(-c3ccc(OCc4ccccc4)cc3)c2c1	16%
O=S(=O)(Nc1ccc2[nH]nc(-c3ccccc3)c2c1)c1ccccc1C(F)(F)F	81%
CS(=O)(=O)c1ccccc1S(=O)(=O)Nc1ccc2[nH]nc(-c3ccccc3-c3ccccc3)c2c1	27%
O=S(=O)(Nc1ccc2[nH]nc(-c3ccc(O)cc3)c2c1)c1ccccc1	89%
O=C(Nc1n[nH]c2ccc(NS(=O)(=O)c3cc(F)cc(F)c3)cc12)c1ccccc1	82%
Cc1cc(C)cc(-c2n[nH]c3ccc(NS(=O)(=O)c4ccccc4S(C)(=O)=O)cc23)c1	72%
CC(=O)Nc1ccc(S(=O)(=O)Nc2ccc3[nH]nc(-c4ccccc4)c3c2)cc1	73%
CCc1ccc(-c2n[nH]c3ccc(NS(=O)(=O)c4ccccc4S(C)(=O)=O)cc23)cc1	65%
COc1ccc(-c2n[nH]c3ccc(NS(=O)(=O)c4ccccc4S(C)(=O)=O)cc23)cc1	93%
Cc1cccc(S(=O)(=O)Nc2ccc3[nH]nc(-c4ccccc4)c3c2)c1	72%
O=S(=O)(Nc1ccc2[nH]nc(-c3ccccc3)c2c1)c1ccc2ccccc2c1	78%
CS(=O)(=O)c1ccccc1S(=O)(=O)Nc1ccc2[nH]nc(-c3ccc(F)cc3)c2c1	94%
CCSc1ccc(-c2n[nH]c3ccc(NS(=O)(=O)c4ccccc4S(C)(=O)=O)cc23)cc1	77%
CS(=O)(=O)c1ccccc1S(=O)(=O)Nc1ccc2[nH]nc(-c3cc(F)cc(F)c3)c2c1	74%
Cc1ccccc1S(=O)(=O)Nc1ccc2[nH]nc(-c3ccccc3)c2c1	77%
CS(=O)(=O)c1ccccc1S(=O)(=O)Nc1ccc2[nH]nc(-c3ccc(Br)cc3)c2c1	75%
CS(=O)(=O)c1ccccc1S(=O)(=O)Nc1ccc2[nH]nc(-c3ccc(-c4ccccc4)cc3)c2c1	41%

SMILES	inhibition
O=[N+]([O-])c1ccccc1S(=O)(=O)Nc1ccc2[nH]nc(-c3ccccc3)c2c1	81%
CS(=O)(=O)c1ccccc1S(=O)(=O)Nc1ccc2[nH]nc(-c3ccncc3)c2c1	87%
CS(=O)(=O)c1ccccc1S(=O)(=O)Nc1ccc2[nH]nc(-c3ccc(Cl)c(Cl)c3)c2c1	66%
O=S(=O)(Nc1ccc2[nH]nc(-c3cc4ccccc4[nH]3)c2c1)c1ccccc1OC(F)(F)F	94%
CS(=O)(=O)c1ccccc1S(=O)(=O)Nc1ccc2[nH]nc(-c3ccc(Cl)cc3)c2c1	96%
O=S(=O)(Nc1ccc2[nH]nc(-c3cc4ccccc4[nH]3)c2c1)c1cccc(F)c1	99%
CS(=O)(=O)c1ccccc1S(=O)(=O)Nc1ccc2[nH]nc(-c3cc(Cl)cc(Cl)c3)c2c1	50%
COc1ccc2[nH]c(-c3n[nH]c4ccc(NS(=O)(=O)c5ccccc5S(C)(=O)=O)cc34)cc2c1	100%
CS(=O)(=O)c1ccccc1S(=O)(=O)Nc1ccc2[nH]nc(-c3ccco3)c2c1	76%
Cc1cc(-c2n[nH]c3ccc(NS(=O)(=O)c4ccccc4S(C)(=O)=O)cc23)ccc1F	66%
CS(=O)(=O)c1ccccc1S(=O)(=O)Nc1ccc2[nH]nc(-c3ccc(I)cc3)c2c1	20%
Cc1ccc(-c2n[nH]c3ccc(NS(=O)(=O)c4ccccc4S(C)(=O)=O)cc23)cc1C	75%
CC(=O)c1ccc(-c2n[nH]c3ccc(NS(=O)(=O)c4ccccc4S(C)(=O)=O)cc23)cc1	56%
Nc1n[nH]c2ccc(NS(=O)(=O)c3cc(F)cc(F)c3)cc12	0%
CS(=O)(=O)c1ccccc1S(=O)(=O)Nc1ccc2[nH]nc(-c3cc4ccccc4s3)c2c1	63%
CS(=O)(=O)c1ccccc1S(=O)(=O)Nc1ccc2[nH]nc(-c3ccc(OC(F)(F)F)cc3)c2c1	61%
O=S(=O)(Nc1ccc2[nH]nc(-c3ccccc3)c2c1)c1ccc(Cl)s1	65%
CC(=O)Nc1n[nH]c2ccc(NS(=O)(=O)c3ccccc3S(C)(=O)=O)cc12	96%
CS(=O)(=O)c1ccccc1S(=O)(=O)Nc1ccc2[nH]nc(-c3cc(C(F)(F)F)cc(C(F)(F)F)c3)c2c1	28%
CS(=O)(=O)c1ccccc1S(=O)(=O)Nc1ccc2[nH]nc(N)c2c1	72%
CS(=O)(=O)c1ccccc1S(=O)(=O)Nc1ccc2[nH]nc(-c3cccnc3)c2c1	88%
